Results reported in PubChem BioAssay AID308 (DTP/NCI, 2004).
“And” between values parts separate entries of the source, which are not always exact repeats. Equal entries are not always repeated. Toxic doses and inconclusive results are not listed.

System: BDF1 mice, L1210 6-MP/6-TG resistant leukemia ip, survival T/C
Assay: NCI In Vivo Anticancer Drug Screen. Data for tumor model L1210 Leukemia resistant to 6-MP and 6-Thioguanine; NSC 755, NSC 752 (intraperitoneal) in B6D2F1 (BDF1) mice
Details: endpoint: mean survival time, higher = longer survival
Experimental: The antitumor activity of compounds was measured in mice bearing transplantable tumors. Survival or tumor size were measured and the results are expressed as the measurement made in the treated group (T) divided by the measurement made in the vehicle treated control group (C). The tumor model used in this assay is L1210 Leukemia resistant to 6-MP and 6-Thioguanine; NSC 755, NSC 752 (intraperitoneal) in B6D2F1 (BDF1) mice

[1] = dose: 15.0 mg/kg/injection, schedule: Q01DX Z (ip), vehicle: saline
[2] = dose: 12.5 mg/kg/injection, schedule: Q01DX Z (ip), vehicle: carboxymethylcellulose (CMC)
[3] = dose: 25.0 mg/kg/injection, schedule: Q01DX Z (ip), vehicle: carboxymethylcellulose (CMC)
[4] = dose: 50.0 mg/kg/injection, schedule: Q01DX Z (ip), vehicle: carboxymethylcellulose (CMC)
[5] = dose: 100.0 mg/kg/injection, schedule: Q01DX Z (ip), vehicle: carboxymethylcellulose (CMC)

Question: How did the T/C (dose: 31.0 mg/kg/injection, schedule: Q01DX Z (ip), vehicle: saline) turn out when CCOC(=O)NP(=O)(N1CC1(C)C)N1CC1(C)C (stereo not drawn) was run?
Answer: 113 % of control

Question: And the T/C (dose: 62.0 mg/kg/injection, schedule: Q01DX Z (ip), vehicle: saline)?
Answer: 160 % of control

Question: And the T/C (dose: 62.5 mg/kg/injection, schedule: Q01DX Z (ip), vehicle: saline)?
Answer: 228 % of control

Question: And the T/C (dose: 93.0 mg/kg/injection, schedule: Q01DX Z (ip), vehicle: saline)?
Answer: 182 % of control

Question: What about the T/C (dose: 125.0 mg/kg/injection, schedule: Q01DX Z (ip), vehicle: saline) of the same compound?
Answer: 160 % of control and 207 % of control

Question: And the T/C (dose: 187.0 mg/kg/injection, schedule: Q01DX Z (ip), vehicle: saline)?
Answer: 207 % of control

Question: For C=CC(CN1CC1)OC(C)=O (stereo not drawn), which T/C (dose: 3.0 mg/kg/injection, schedule: Q01DX Z (ip), vehicle: saline) is on record?
Answer: 116 % of control

Question: And the T/C (dose: 12.0 mg/kg/injection, schedule: Q01DX Z (ip), vehicle: saline)?
Answer: 150 % of control

Question: And the T/C [1]?
Answer: 91 % of control

Question: How did the T/C [2] turn out when Cn1cnc2c(SCc3ccccc3)ncnc21 was run?
Answer: 100 % of control

Question: And the T/C [3]?
Answer: 107 % of control

Question: And the T/C [4]?
Answer: 100 % of control

Question: And the T/C (dose: 93.0 mg/kg/injection, schedule: Q01DX Z (ip), vehicle: carboxymethylcellulose (CMC))?
Answer: 87 % of control

Question: What about the T/C [5] of the same compound?
Answer: 102 % of control

Question: What about the T/C (dose: 187.0 mg/kg/injection, schedule: Q01DX Z (ip), vehicle: carboxymethylcellulose (CMC)) of the same compound?
Answer: 98 % of control

Question: And the T/C (dose: 250.0 mg/kg/injection, schedule: Q01DX Z (ip), vehicle: carboxymethylcellulose (CMC))?
Answer: 92 % of control

Question: Which T/C (dose: 3.12 mg/kg/injection, schedule: Q01DX Z (ip), vehicle: carboxymethylcellulose (CMC)) does the source give for CSc1ncc(Br)c(Sc2nc(N)nc3nc[nH]c23)n1 here?
Answer: 100 % of control

Question: And the T/C (dose: 6.25 mg/kg/injection, schedule: Q01DX Z (ip), vehicle: carboxymethylcellulose (CMC))?
Answer: 95 % of control

Question: What about the T/C [2] of the same compound?
Answer: 88 % of control

Question: How did the T/C (dose: 0.6 mg/kg/injection, schedule: Q02DX010 (ip), vehicle: carboxymethylcellulose (CMC)) turn out when CN(Cc1cnc2nc(N)nc(N)c2n1)c1ccc(C(=O)N[C@@H](CCC(=O)O)C(=O)O)cc1 was run?
Answer: 172 % of control

Question: And the T/C (dose: 0.9 mg/kg/injection, schedule: Q02DX010 (ip), vehicle: carboxymethylcellulose (CMC))?
Answer: 163 % of control

Question: What about the T/C (dose: 1.3 mg/kg/injection, schedule: Q02DX010 (ip), vehicle: carboxymethylcellulose (CMC)) of the same compound?
Answer: 220 % of control

Question: And the T/C (dose: 2.0 mg/kg/injection, schedule: Q02DX010 (ip), vehicle: carboxymethylcellulose (CMC))?
Answer: 261 % of control

Question: What about the T/C (dose: 3.0 mg/kg/injection, schedule: Q02DX010 (ip), vehicle: carboxymethylcellulose (CMC)) of the same compound?
Answer: 282 % of control

Question: What about the T/C (dose: 4.5 mg/kg/injection, schedule: Q02DX010 (ip), vehicle: carboxymethylcellulose (CMC)) of the same compound?
Answer: 294 % of control

Question: And the T/C (dose: 6.75 mg/kg/injection, schedule: Q02DX010 (ip), vehicle: carboxymethylcellulose (CMC))?
Answer: 290 % of control

Question: Which T/C (dose: 50.0 mg/kg/injection, schedule: Q01DX009 (ip), vehicle: carboxymethylcellulose (CMC)) does the source give for CN(C)[C@@H]1C(=O)C(C(=O)NCc2nc3[nH]cnc(=S)c3[nH]2)=C(O)[C@@]2(O)C(=O)C3=C(O)c4c(O)cccc4[C@@](C)(O)[C@H]3C[C@@H]12 here?
Answer: 105 % of control

Question: And the T/C (dose: 100.0 mg/kg/injection, schedule: Q01DX009 (ip), vehicle: carboxymethylcellulose (CMC))?
Answer: 104 % of control

Question: What about the T/C (dose: 400.0 mg/kg/injection, schedule: Q01DX009 (ip), vehicle: carboxymethylcellulose (CMC)) of the same compound?
Answer: 93 % of control

Question: C[C@@H]1C[C@H]2CC[C@H](O2)[C@H](C)C(=O)O[C@@H](C)C[C@@H]2CC[C@@H](O2)[C@@H](C)C(=O)O[C@H](C)C[C@H]2CC[C@H](O2)[C@H](C)C(=O)O[C@@H](C)C[C@@H]2CC[C@@H](O2)[C@@H](C)C(=O)O1 was tested. Which T/C (dose: 10.0 mg/kg/injection, schedule: Q01DX Z (ip), vehicle: other) did it give?
Answer: 101 % of control

Question: And the T/C (dose: 15.0 mg/kg/injection, schedule: Q01DX Z (ip), vehicle: other)?
Answer: 101 % of control

Question: What about the T/C (dose: 20.0 mg/kg/injection, schedule: Q01DX Z (ip), vehicle: other) of the same compound?
Answer: 104 % of control

Question: What about the T/C (dose: 30.0 mg/kg/injection, schedule: Q01DX Z (ip), vehicle: other) of the same compound?
Answer: 94 % of control

Question: And the T/C (dose: 45.0 mg/kg/injection, schedule: Q01DX Z (ip), vehicle: carboxymethylcellulose (CMC))?
Answer: 100 % of control

Question: And the T/C (dose: 90.0 mg/kg/injection, schedule: Q01DX Z (ip), vehicle: carboxymethylcellulose (CMC))?
Answer: 93 % of control

Question: What about the T/C (dose: 180.0 mg/kg/injection, schedule: Q01DX Z (ip), vehicle: carboxymethylcellulose (CMC)) of the same compound?
Answer: 96 % of control

Question: And the T/C (dose: 360.0 mg/kg/injection, schedule: Q01DX Z (ip), vehicle: carboxymethylcellulose (CMC))?
Answer: 95 % of control

Question: What does the source list for CN(C)C(=S)N=Nc1c(O)[nH]c2ccccc12?
Answer: T/C [3]: 107 % of control; T/C [4]: 105 % of control; T/C [5]: 91 % of control

Question: Which results are given for O=C(Nc1ccc(C2=NCCN2)cc1)c1ccc(C(=O)Nc2ccc(C3=NCCN3)cc2)c(Cl)c1?
Answer: T/C (dose: 1.7 mg/kg/injection, schedule: Q01DX015 (ip), vehicle: carboxymethylcellulose (CMC)): 110 % of control; T/C (dose: 2.6 mg/kg/injection, schedule: Q01DX015 (ip), vehicle: carboxymethylcellulose (CMC)): 107 % of control; T/C (dose: 3.8 mg/kg/injection, schedule: Q01DX015 (ip), vehicle: carboxymethylcellulose (CMC)): 97 % of control; T/C (dose: 4.4 mg/kg/injection, schedule: Q01DX015 (ip), vehicle: carboxymethylcellulose (CMC)): 121 % of control; T/C (dose: 5.3 mg/kg/injection, schedule: Q01DX015 (ip), vehicle: carboxymethylcellulose (CMC)): 89 % of control; T/C (dose: 6.5 mg/kg/injection, schedule: Q01DX015 (ip), vehicle: carboxymethylcellulose (CMC)): 253 % of control; T/C (dose: 7.0 mg/kg/injection, schedule: Q01DX015 (ip), vehicle: carboxymethylcellulose (CMC)): 108 % of control; T/C (dose: 8.0 mg/kg/injection, schedule: Q01DX015 (ip), vehicle: carboxymethylcellulose (CMC)): 122 % of control; T/C (dose: 8.7 mg/kg/injection, schedule: Q01DX015 (ip), vehicle: carboxymethylcellulose (CMC)): 157 % of control; T/C (dose: 12.0 mg/kg/injection, schedule: Q01DX015 (ip), vehicle: carboxymethylcellulose (CMC)): 90 % of control; T/C (dose: 13.0 mg/kg/injection, schedule: Q02DX010 (ip), vehicle: carboxymethylcellulose (CMC)): 191 % of control; T/C (dose: 15.0 mg/kg/injection, schedule: Q01DX010 (ip), vehicle: carboxymethylcellulose (CMC)): 170 % of control; T/C (dose: 15.0 mg/kg/injection, schedule: Q01DX015 (ip), vehicle: carboxymethylcellulose (CMC)): 168 % of control; T/C (dose: 18.0 mg/kg/injection, schedule: Q01DX015 (ip), vehicle: carboxymethylcellulose (CMC)): 108 % of control; T/C (dose: 20.0 mg/kg/injection, schedule: Q01DX010 (ip), vehicle: carboxymethylcellulose (CMC)): 181 % of control; T/C (dose: 20.0 mg/kg/injection, schedule: Q01DX015 (ip), vehicle: carboxymethylcellulose (CMC)): 166 % of control and 187 % of control; T/C (dose: 22.5 mg/kg/injection, schedule: Q01DX015 (ip), vehicle: carboxymethylcellulose (CMC)): 154 % of control; T/C (dose: 26.0 mg/kg/injection, schedule: Q01DX015 (ip), vehicle: carboxymethylcellulose (CMC)): 214 % of control; T/C (dose: 27.0 mg/kg/injection, schedule: Q01DX015 (ip), vehicle: carboxymethylcellulose (CMC)): 90 % of control; T/C (dose: 30.0 mg/kg/injection, schedule: Q02DX010 (ip), vehicle: carboxymethylcellulose (CMC)): 223 % of control; T/C (dose: 45.0 mg/kg/injection, schedule: Q02DX010 (ip), vehicle: carboxymethylcellulose (CMC)): 188 % of control

Question: Which results are given for O=C(O)CCCc1ccc(N(CCCl)CCCl)cc1?
Answer: T/C (dose: 5.0 mg/kg/injection, schedule: Q01DX Z (ip), vehicle: carboxymethylcellulose (CMC)): 117 % of control; T/C (dose: 10.0 mg/kg/injection, schedule: Q01DX Z (ip), vehicle: carboxymethylcellulose (CMC)): 114 % of control; T/C (dose: 20.0 mg/kg/injection, schedule: Q01DX Z (ip), vehicle: carboxymethylcellulose (CMC)): 115 % of control; T/C (dose: 30.0 mg/kg/injection, schedule: Q01DX Z (ip), vehicle: carboxymethylcellulose (CMC)): 89 % of control

Question: How did the T/C (dose: 0.93 mg/kg/injection, schedule: Q01DX Z (ip), vehicle: carboxymethylcellulose (CMC)) turn out when C[C@@H]1C[C@@H]([C@H](O)CC2CC(=O)NC(=O)C2)C(=O)[C@@H](C)C1 was run?
Answer: 101 % of control

Question: What about the T/C (dose: 1.87 mg/kg/injection, schedule: Q01DX Z (ip), vehicle: carboxymethylcellulose (CMC)) of the same compound?
Answer: 101 % of control

Question: And the T/C (dose: 3.75 mg/kg/injection, schedule: Q01DX Z (ip), vehicle: carboxymethylcellulose (CMC))?
Answer: 100 % of control

Question: And the T/C (dose: 7.5 mg/kg/injection, schedule: Q01DX Z (ip), vehicle: carboxymethylcellulose (CMC))?
Answer: 101 % of control

Question: What about the T/C (dose: 7.5 mg/kg/injection, schedule: Q01DX Z (ip), vehicle: saline) of the same compound?
Answer: 116 % of control

Question: What about the T/C [1] of the same compound?
Answer: 114 % of control

Question: What about the T/C (dose: 30.0 mg/kg/injection, schedule: Q01DX Z (ip), vehicle: saline) of the same compound?
Answer: 112 % of control

Question: And the T/C (dose: 60.0 mg/kg/injection, schedule: Q01DX Z (ip), vehicle: saline)?
Answer: 92 % of control
